EP4745137A1 (Gluetacs Therapeutics (Shanghai) Co., Ltd., priority 2023, dated 2025)
Like-named read-outs stand apart in the source and are kept apart here.

How the values were obtained:
WEE1 = target: T1, WEE1 (Homo sapiens, UniProt P30291+Q96SW2); assay: Western-blot assay of substrate protein degradation in hPBMCs, WEE1; format: cell-based; conditions: 24 hours of compound treatment
T1 construct: endogenous in cells; host or cells: hPBMCs (Milecell Biotechnologies)

IKZF2 = target: T2, IKZF2 (Homo sapiens, UniProt Q96SW2+Q9UKS7); assay: Western-blot assay of substrate protein degradation in hPBMCs, IKZF2; format: cell-based; conditions: 24 hours of compound treatment
T2 construct: endogenous in cells; host or cells: hPBMCs (Milecell Biotechnologies)

CK1α = target: T3, CK1α (Homo sapiens, UniProt P48729+Q96SW2); assay: Western-blot assay of substrate protein degradation in hPBMCs, CK1α; format: cell-based; conditions: 24 hours of compound treatment
T3 construct: endogenous in cells; host or cells: hPBMCs (Milecell Biotechnologies)

[1] = target: T4, human Cereblon WT GST-tagged protein (Homo sapiens, UniProt Q96SW2); assay: CRBN-binding affinity by HTRF (CEREBLON BINDING kit); conditions: HTRF inhibitory activity, CEREBLON BINDING kit; read-out: HTRF IC50
T4 construct: purchased CISBIO 64BDCRBNPEH

IKZF1 = target: T5, IKZF1 (Homo sapiens, UniProt Q13422+Q96SW2); assay: Western-blot assay of substrate protein degradation in hPBMCs, IKZF1; format: cell-based; conditions: 24 hours of compound treatment
T5 construct: endogenous in cells; host or cells: hPBMCs (Milecell Biotechnologies)

[2] = test system: Human acute T lymphocytic leukemia cells (Molt-4); assay: Tumor cell proliferation inhibition (CellTiter-Meiluncell Luminescent Cell Viability Assay), Molt-4; conditions: MOLT-4, 96 h, read-out: inhibitory activity (IC50, nM) against tumor cells proliferation, Molt 4
GSPT1 = target: T6, GSPT1 (Homo sapiens, UniProt P15170+Q96SW2); assay: Western-blot assay of substrate protein degradation in hPBMCs, GSPT1; format: cell-based; conditions: 24 hours of compound treatment
T6 construct: endogenous in cells; host or cells: hPBMCs (Milecell Biotechnologies)

CCRF-CEM = assay: Tumor cell proliferation inhibition (CellTiter-Meiluncell Luminescent Cell Viability Assay), CCRF-CEM; conditions: Homo sapiens, 96 h, read-out: inhibitory activity (IC50, nM) against tumor cells proliferation, CCRF-CEM
IKZF3 = target: T7, IKZF3 (Homo sapiens, UniProt Q96SW2+Q9UKT9); assay: Western-blot assay of substrate protein degradation in hPBMCs, IKZF3; format: cell-based; conditions: 24 hours of compound treatment
T7 construct: endogenous in cells; host or cells: hPBMCs (Milecell Biotechnologies)

Jurkat = assay: Tumor cell proliferation inhibition (CellTiter-Meiluncell Luminescent Cell Viability Assay), Jurkat; conditions: Homo sapiens, read-out: inhibitory activity (IC50, nM) against tumor cells proliferation, Jurkat
MM.1R = assay: Tumor cell proliferation inhibition (CellTiter-Meiluncell Luminescent Cell Viability Assay), MM.1R; conditions: Homo sapiens, 96 h, read-out: inhibitory activity (IC50, nM) against tumor cells proliferation, MM.1R
Experimental: (§1) The tumor cells used herein were cultured in a cell culture medium listed in table 2 at 37°C in an incubator with 5% CO2. Prior to experimentation, all cell lines used were correctly identified by STR profiling, and tested negative for mycoplasma contamination using a mycoplasma detection kit through routine screenings.
(§2) On the following day, the test compounds of the present disclosure were subjected to serial dilution. […] Subsequently, 0.5 µL of the test compound dilution was transferred into the 96-well plate containing the cells, with each well containing 100 µL of cell culture medium. […] Into the 96-well plate, the diluted test compounds and corresponding detection reagents were added, resulting in final test compound concentrations of 500 nM and 10 nM, respectively. The experimental procedure is described below using the diluted 2 µM test compound as an example.
(§3) After the cells were treated with the compounds of the present disclosure for a specified period (the treatment durations were shown in Table 3), the cell viability assay reagent was added to the culture medium according to the kit's instructions to determine cell viability. […] All controls were treated using the same procedure as the compounds of the present disclosure. The growth inhibition curves for the compounds of the present disclosure were plotted using Prism GraphPad software, and the IC50 values were calculated therefrom.

CAL-62 = assay: Tumor cell proliferation inhibition (CellTiter-Meiluncell Luminescent Cell Viability Assay), CAL-62; conditions: Homo sapiens, CAL-62, 96 h, read-out: inhibitory activity (IC50, nM) against tumor cells proliferation, CAL-62
Experimental: as §1, §2, §3

[3] = test system: Human breast cancer cells (MDA-MB-231); assay: Tumor cell proliferation inhibition (CellTiter-Meiluncell Luminescent Cell Viability Assay), MDA-MB-231; conditions: MDA-MB-231, 96 h, read-out: inhibitory activity (IC50, nM) against tumor cells proliferation, MDA-MB-231
NCI-H1975 = assay: Tumor cell proliferation inhibition (CellTiter-Meiluncell Luminescent Cell Viability Assay), NCI-H1975; conditions: Homo sapiens, NCI-H1975, 96 h, read-out: inhibitory activity (IC50, nM) against tumor cells proliferation, H1975
[4] = compounds tested at 50 nM and 500 nM (concentration of the table not stated)
[5] = 50 nM and 500 nM tested (concentration behind the class not stated)

T3 sequence (P48729 whole entry): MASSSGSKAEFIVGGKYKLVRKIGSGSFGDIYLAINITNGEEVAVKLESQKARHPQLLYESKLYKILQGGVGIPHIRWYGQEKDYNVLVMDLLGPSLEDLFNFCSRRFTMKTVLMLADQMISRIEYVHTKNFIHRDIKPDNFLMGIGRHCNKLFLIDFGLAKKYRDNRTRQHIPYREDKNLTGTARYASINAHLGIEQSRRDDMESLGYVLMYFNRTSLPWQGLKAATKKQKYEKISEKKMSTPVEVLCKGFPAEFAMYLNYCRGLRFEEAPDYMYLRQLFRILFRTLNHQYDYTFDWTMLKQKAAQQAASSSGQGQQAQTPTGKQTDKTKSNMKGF
T3 sequence (Q96SW2 whole entry): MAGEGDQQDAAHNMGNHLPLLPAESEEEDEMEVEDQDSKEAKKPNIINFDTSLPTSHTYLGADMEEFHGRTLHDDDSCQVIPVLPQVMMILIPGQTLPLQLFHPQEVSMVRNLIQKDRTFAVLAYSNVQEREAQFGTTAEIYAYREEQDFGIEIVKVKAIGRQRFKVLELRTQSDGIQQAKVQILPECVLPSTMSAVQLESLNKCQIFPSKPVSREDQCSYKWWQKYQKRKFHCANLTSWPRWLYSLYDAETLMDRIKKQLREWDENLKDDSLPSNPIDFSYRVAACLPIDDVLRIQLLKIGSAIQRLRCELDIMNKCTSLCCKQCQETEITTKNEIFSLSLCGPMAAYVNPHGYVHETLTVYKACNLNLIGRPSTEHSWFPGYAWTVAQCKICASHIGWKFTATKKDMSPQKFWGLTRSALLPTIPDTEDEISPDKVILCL
T3 sequence (Q16531 whole entry partner): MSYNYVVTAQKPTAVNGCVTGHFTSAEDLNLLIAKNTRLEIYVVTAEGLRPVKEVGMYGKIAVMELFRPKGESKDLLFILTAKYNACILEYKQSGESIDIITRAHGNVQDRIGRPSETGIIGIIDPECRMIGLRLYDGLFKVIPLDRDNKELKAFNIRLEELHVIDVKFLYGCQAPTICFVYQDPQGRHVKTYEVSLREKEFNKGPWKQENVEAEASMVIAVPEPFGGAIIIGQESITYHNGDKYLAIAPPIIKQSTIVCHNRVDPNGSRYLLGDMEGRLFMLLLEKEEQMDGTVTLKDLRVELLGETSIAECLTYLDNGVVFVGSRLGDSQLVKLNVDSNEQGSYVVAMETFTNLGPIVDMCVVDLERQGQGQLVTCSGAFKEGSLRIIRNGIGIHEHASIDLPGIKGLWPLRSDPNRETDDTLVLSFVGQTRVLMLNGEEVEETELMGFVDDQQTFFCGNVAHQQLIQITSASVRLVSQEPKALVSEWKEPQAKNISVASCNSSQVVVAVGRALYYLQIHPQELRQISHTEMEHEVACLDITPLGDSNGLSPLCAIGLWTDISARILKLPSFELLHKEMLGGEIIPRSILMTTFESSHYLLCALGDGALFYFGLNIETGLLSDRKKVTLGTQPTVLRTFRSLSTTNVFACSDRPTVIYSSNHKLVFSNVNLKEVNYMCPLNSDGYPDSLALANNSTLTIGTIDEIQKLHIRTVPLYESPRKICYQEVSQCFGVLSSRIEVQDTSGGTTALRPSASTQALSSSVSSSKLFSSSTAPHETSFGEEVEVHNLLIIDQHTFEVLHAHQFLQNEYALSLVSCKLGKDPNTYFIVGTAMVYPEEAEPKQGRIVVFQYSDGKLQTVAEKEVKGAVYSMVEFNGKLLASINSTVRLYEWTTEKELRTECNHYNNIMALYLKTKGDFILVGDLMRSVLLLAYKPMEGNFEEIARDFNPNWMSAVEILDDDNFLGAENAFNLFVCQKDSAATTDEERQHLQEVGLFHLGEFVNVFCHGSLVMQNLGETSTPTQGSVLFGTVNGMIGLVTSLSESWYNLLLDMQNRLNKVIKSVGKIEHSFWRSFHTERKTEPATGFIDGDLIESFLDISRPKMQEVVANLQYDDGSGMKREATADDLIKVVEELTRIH
T4 sequence (Q96SW2 whole entry): as the sequence (Q96SW2 whole entry) above
T5 sequence (Q13422 whole entry): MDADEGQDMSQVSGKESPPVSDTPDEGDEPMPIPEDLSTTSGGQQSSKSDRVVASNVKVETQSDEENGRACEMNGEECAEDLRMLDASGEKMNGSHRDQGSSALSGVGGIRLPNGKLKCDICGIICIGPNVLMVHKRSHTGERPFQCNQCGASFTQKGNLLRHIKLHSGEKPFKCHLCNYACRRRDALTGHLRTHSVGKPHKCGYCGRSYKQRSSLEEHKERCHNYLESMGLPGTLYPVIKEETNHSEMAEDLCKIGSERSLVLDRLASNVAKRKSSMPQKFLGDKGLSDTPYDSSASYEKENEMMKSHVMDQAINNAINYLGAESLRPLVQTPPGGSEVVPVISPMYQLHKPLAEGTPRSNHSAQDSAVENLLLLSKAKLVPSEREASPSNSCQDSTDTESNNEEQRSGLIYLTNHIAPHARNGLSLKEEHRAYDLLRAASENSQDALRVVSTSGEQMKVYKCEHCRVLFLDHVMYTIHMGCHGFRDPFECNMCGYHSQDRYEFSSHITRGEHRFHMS
T5 sequence (Q96SW2 whole entry): as the sequence (Q96SW2 whole entry) above
T5 sequence (Q16531 whole entry partner): as the sequence (Q16531 whole entry partner) above
T6 sequence (P15170 whole entry): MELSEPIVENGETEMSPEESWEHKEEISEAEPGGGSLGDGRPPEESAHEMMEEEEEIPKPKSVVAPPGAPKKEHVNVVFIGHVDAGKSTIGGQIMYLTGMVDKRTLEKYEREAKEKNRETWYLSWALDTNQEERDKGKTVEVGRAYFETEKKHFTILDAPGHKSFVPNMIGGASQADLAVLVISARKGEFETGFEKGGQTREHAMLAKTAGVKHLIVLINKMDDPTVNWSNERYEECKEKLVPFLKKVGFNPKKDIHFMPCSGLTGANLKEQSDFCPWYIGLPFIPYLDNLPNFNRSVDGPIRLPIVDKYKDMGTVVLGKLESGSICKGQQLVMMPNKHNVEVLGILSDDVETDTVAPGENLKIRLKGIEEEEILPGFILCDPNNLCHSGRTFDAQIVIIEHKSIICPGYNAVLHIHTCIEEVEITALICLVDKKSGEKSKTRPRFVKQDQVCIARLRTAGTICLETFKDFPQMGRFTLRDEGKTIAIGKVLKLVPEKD
T6 sequence (Q96SW2 whole entry): as the sequence (Q96SW2 whole entry) above
T6 sequence (Q16531 whole entry partner): as the sequence (Q16531 whole entry partner) above
T2 sequence (Q9UKS7 whole entry): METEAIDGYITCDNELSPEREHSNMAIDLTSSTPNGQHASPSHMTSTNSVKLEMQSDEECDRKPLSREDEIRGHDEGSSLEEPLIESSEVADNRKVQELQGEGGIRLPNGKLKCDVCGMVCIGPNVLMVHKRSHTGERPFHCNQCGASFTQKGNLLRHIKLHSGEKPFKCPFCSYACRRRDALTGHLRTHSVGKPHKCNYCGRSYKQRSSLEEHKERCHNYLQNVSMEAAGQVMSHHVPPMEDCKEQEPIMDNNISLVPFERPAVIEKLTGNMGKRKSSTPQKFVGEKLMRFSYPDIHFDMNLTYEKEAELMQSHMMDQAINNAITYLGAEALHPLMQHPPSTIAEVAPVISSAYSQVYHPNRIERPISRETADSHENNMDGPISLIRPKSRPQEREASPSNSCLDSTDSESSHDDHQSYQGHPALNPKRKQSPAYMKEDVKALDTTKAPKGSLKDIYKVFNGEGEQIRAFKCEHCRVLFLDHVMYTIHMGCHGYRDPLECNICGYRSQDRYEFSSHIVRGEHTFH
T2 sequence (Q96SW2 whole entry): as the sequence (Q96SW2 whole entry) above
T2 sequence (Q16531 whole entry partner): as the sequence (Q16531 whole entry partner) above
T1 sequence (P30291 whole entry): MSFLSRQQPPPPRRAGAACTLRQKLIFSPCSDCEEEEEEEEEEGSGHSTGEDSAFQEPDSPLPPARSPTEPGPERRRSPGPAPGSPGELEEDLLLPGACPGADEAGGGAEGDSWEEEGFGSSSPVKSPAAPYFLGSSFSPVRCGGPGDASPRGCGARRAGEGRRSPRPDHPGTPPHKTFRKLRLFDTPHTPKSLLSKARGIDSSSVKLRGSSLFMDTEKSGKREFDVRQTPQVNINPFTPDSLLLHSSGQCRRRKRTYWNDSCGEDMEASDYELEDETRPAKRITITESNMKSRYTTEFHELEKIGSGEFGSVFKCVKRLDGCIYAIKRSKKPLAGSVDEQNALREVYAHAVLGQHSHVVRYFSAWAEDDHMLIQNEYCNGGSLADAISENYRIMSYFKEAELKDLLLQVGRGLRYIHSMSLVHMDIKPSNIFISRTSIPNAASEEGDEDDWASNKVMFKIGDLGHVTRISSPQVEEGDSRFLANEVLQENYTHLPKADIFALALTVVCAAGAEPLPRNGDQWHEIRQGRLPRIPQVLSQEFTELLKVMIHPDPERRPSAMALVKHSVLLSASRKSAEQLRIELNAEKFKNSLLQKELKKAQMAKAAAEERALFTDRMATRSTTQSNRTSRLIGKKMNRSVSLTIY
T1 sequence (Q96SW2 whole entry): as the sequence (Q96SW2 whole entry) above
T1 sequence (Q16531 whole entry partner): as the sequence (Q16531 whole entry partner) above

## O=C1CCC(N2Cc3cc(CN4CCN(c5cccc(Cl)c5Cl)CC4)cc(F)c3C2=O)C(=O)N1 (stereo not shown) [GT-04445, 3-(5-((4-(2,3-dichlorophenyl)piperazin-1-yl)methyl)-7-fluoro-1-oxoisoindolin-2-yl)piperidine-2,6-dione]
WEE1; [4]
  Weel substrate protein remaining %: B (80%< substrate protein remaining %≤ 100%)
IKZF2; [4]
  IKZF2 substrate protein remaining %: A (0% ≤ substrate protein remaining % ≤ 80%)
CK1α; [4]
  CK1a substrate protein remaining %: B (80%< substrate protein remaining %≤ 100%)
[1]
  IC50: 500 to 1000 nM
IKZF1; [4]
  IKZF 1 substrate protein remaining %: A (0% ≤ substrate protein remaining % ≤ 80%)
[2]
  IC50: 100 to 500 nM
GSPT1; [4]
  GSPT1 substrate protein remaining %: A (0% ≤ substrate protein remaining % ≤ 80%)
CCRF-CEM
  IC50: 100 to 500 nM
IKZF3; [4]
  IKZF3 substrate protein remaining %: A (0% ≤ substrate protein remaining % ≤ 80%)
Jurkat; 96 h
  IC50: 100 to 500 nM

## COc1ccc(N2CCN(Cc3ccc4c(c3)CN(C3CCC(=O)NC3=O)C4=O)CC2)cc1 (stereo not shown) [GT-04447, 3-(5-((4-(4-methoxyphenyl)piperazin-1-yl)methyl)-1-oxoisoindolin-2-yl)piperidine-2,6-dione]
WEE1; [4]
  Weel substrate protein remaining %: B (80%< substrate protein remaining %≤ 100%)
IKZF2; [4]
  IKZF2 substrate protein remaining %: A (0% ≤ substrate protein remaining % ≤ 80%)
CK1α; [4]
  CK1a substrate protein remaining %: B (80%< substrate protein remaining %≤ 100%)
[1]
  IC50: 1000 to 1500 nM
MM.1R
  IC50: 100 to 500 nM
IKZF1; [4]
  IKZF 1 substrate protein remaining %: A (0% ≤ substrate protein remaining % ≤ 80%)
[2]
  IC50: 100 to 500 nM
GSPT1; [4]
  GSPT1 substrate protein remaining %: A (0% ≤ substrate protein remaining % ≤ 80%)
CCRF-CEM
  IC50: 100 to 500 nM
IKZF3; [4]
  IKZF3 substrate protein remaining %: A (0% ≤ substrate protein remaining % ≤ 80%)
Jurkat; 96 h
  IC50: 100 to 500 nM

## O=C1CCC(N2Cc3cc(CN4CCN(c5cnnc(Cl)c5Cl)CC4)ccc3C2=O)C(=O)N1 (stereo not shown) [GT-04544, 3-(5-((4-(5,6-dichloropyridazin-4-yl)piperazin-1-yl)methyl)-1-oxoisoindolin-2-yl)piperidine-2,6-dione]
WEE1; [4]
  Weel substrate protein remaining %: A (0% ≤ substrate protein remaining % ≤ 80%)
IKZF2; [4]
  IKZF2 substrate protein remaining %: A (0% ≤ substrate protein remaining % ≤ 80%)
CK1α; [4]
  CK1a substrate protein remaining %: A (0% ≤ substrate protein remaining % ≤ 80%)
[1]
  IC50: 500 to 1000 nM
CAL-62
  IC50: 50 to 100 nM
IKZF1; [4]
  IKZF 1 substrate protein remaining %: A (0% ≤ substrate protein remaining % ≤ 80%)
GSPT1; [4]
  GSPT1 substrate protein remaining %: A (0% ≤ substrate protein remaining % ≤ 80%)
IKZF3; [4]
  IKZF3 substrate protein remaining %: A (0% ≤ substrate protein remaining % ≤ 80%)

## O=C1CCC(N2Cc3cc(CN4CCN(c5cccs5)CC4)ccc3C2=O)C(=O)N1 (stereo not shown) [GT-04545, 3-(1-oxo-5-((4-(thiophen-2-yl)piperazin-1-yl)methyl)isoindolin-2-yl)piperidine-2,6-dione]
WEE1; [4]
  Weel substrate protein remaining %: A (0% ≤ substrate protein remaining % ≤ 80%)
IKZF2; [4]
  IKZF2 substrate protein remaining %: A (0% ≤ substrate protein remaining % ≤ 80%)
CK1α; [4]
  CK1a substrate protein remaining %: A (0% ≤ substrate protein remaining % ≤ 80%)
[1]
  IC50: < 500 nM
CAL-62
  IC50: 100 to 500 nM
IKZF1; [4]
  IKZF 1 substrate protein remaining %: A (0% ≤ substrate protein remaining % ≤ 80%)
GSPT1; [4]
  GSPT1 substrate protein remaining %: A (0% ≤ substrate protein remaining % ≤ 80%)
IKZF3; [4]
  IKZF3 substrate protein remaining %: A (0% ≤ substrate protein remaining % ≤ 80%)

## O=C1CCC(N2Cc3cc(CN4CCN(c5ccsc5)CC4)ccc3C2=O)C(=O)N1 (stereo not shown) [GT-04547, 3-(1-oxo-5-((4-(thiophen-3-yl)piperazin-1-yl)methyl)isoindolin-2-yl)piperidine-2,6-dione]
WEE1; [4]
  Weel substrate protein remaining %: A (0% ≤ substrate protein remaining % ≤ 80%)
IKZF2; [4]
  IKZF2 substrate protein remaining %: A (0% ≤ substrate protein remaining % ≤ 80%)
CK1α; [4]
  CK1a substrate protein remaining %: A (0% ≤ substrate protein remaining % ≤ 80%)
[1]
  IC50: 500 to 1000 nM
MM.1R
  IC50: 100 to 500 nM
IKZF1; [4]
  IKZF 1 substrate protein remaining %: A (0% ≤ substrate protein remaining % ≤ 80%)
[2]
  IC50: 100 to 500 nM
GSPT1; [4]
  GSPT1 substrate protein remaining %: A (0% ≤ substrate protein remaining % ≤ 80%)
IKZF3; [4]
  IKZF3 substrate protein remaining %: A (0% ≤ substrate protein remaining % ≤ 80%)
Jurkat; 96 h
  IC50: 100 to 500 nM

## Cc1cscc1N1CCN(Cc2ccc3c(c2)CN(C2CCC(=O)NC2=O)C3=O)CC1 (stereo not shown) [GT-04548, 3-(5-((4-(4-methylthiophen-3-yl)piperazin-1-yl)methyl)-1-oxoisoindolin-2-yl)piperidine-2,6-dione]
WEE1; [4]
  Weel substrate protein remaining %: A (0% ≤ substrate protein remaining % ≤ 80%)
IKZF2; [4]
  IKZF2 substrate protein remaining %: A (0% ≤ substrate protein remaining % ≤ 80%)
CK1α; [4]
  CK1a substrate protein remaining %: A (0% ≤ substrate protein remaining % ≤ 80%)
[3]
  IC50: 500 to 1000 nM
[1]
  IC50: 500 to 1000 nM
MM.1R
  IC50: 10 to 50 nM
IKZF1; [4]
  IKZF 1 substrate protein remaining %: A (0% ≤ substrate protein remaining % ≤ 80%)
NCI-H1975
  IC50: 500 to 1000 nM
[2]
  IC50: 10 to 50 nM
GSPT1; [4]
  GSPT1 substrate protein remaining %: A (0% ≤ substrate protein remaining % ≤ 80%)
IKZF3; [4]
  IKZF3 substrate protein remaining %: A (0% ≤ substrate protein remaining % ≤ 80%)
Jurkat; 96 h
  IC50: 10 to 50 nM

## O=C1CCC(N2Cc3cc(CN4CC=C(c5c[nH]c6cc(F)ccc56)CC4)ccc3C2=O)C(=O)N1 (stereo not shown) [GT-04722, 3-(5-((4-(6-fluoro-1H-indol-3-yl)-3,6-dihydropyridin-1(2H)-yl)methyl)-1-oxoisoindolin-2-yl)piperidine-2,6-dione]
WEE1; [4]
  Weel substrate protein remaining %: B (80%< substrate protein remaining %≤ 100%)
IKZF2; [4]
  IKZF2 substrate protein remaining %: B (80%< substrate protein remaining %≤ 100%)
CK1α; [4]
  CK1a substrate protein remaining %: A (0% ≤ substrate protein remaining % ≤ 80%)
[3]
  IC50: 100 to 500 nM
[1]
  IC50: < 500 nM
IKZF1; [4]
  IKZF 1 substrate protein remaining %: B (80%< substrate protein remaining %≤ 100%)
NCI-H1975
  IC50: 100 to 500 nM
[2]
  IC50: 50 to 100 nM
GSPT1; [4]
  GSPT1 substrate protein remaining %: A (0% ≤ substrate protein remaining % ≤ 80%)
IKZF3; [4]
  IKZF3 substrate protein remaining %: A (0% ≤ substrate protein remaining % ≤ 80%)

## O=C1CCC(N2C(=O)c3ccc(CN4CCC(c5ncc6ccsc6n5)CC4)cc3C2=O)C(=O)N1 (stereo not shown) [GT-06652, 2-(2,6-dioxopiperidin-3-yl)-5-((4-(thieno[2,3-d]pyrimidin-2-yl)piperidin-1-yl)methyl)isoindoline-1,3-dione]
WEE1; [5]
  Weel substrate protein remaining %: A (0% ≤ substrate protein remaining % ≤ 80%)
IKZF2; [5]
  IKZF2 substrate protein remaining %: A (0% ≤ substrate protein remaining % ≤ 80%)
CK1α; [5]
  CK1a substrate protein remaining %: B (80%< substrate protein remaining %≤ 100%)
IKZF1; [5]
  IKZF 1 substrate protein remaining %: B (80%< substrate protein remaining %≤ 100%)
GSPT1; [5]
  GSPT1 substrate protein remaining %: A (0% ≤ substrate protein remaining % ≤ 80%)
IKZF3; [5]
  IKZF3 substrate protein remaining %: B (80%< substrate protein remaining %≤ 100%)
Jurkat
  IC50: 100 to 500 nM
